Data set [1] concerns NTCP-HEK293 cells. As to the kind of experiment: Passive uptake in the absence of sodium.
Data set [2] has as its target T1, human NTCP (Homo sapiens, UniProt Q14973).
T1 sequence (Q14973 1-349): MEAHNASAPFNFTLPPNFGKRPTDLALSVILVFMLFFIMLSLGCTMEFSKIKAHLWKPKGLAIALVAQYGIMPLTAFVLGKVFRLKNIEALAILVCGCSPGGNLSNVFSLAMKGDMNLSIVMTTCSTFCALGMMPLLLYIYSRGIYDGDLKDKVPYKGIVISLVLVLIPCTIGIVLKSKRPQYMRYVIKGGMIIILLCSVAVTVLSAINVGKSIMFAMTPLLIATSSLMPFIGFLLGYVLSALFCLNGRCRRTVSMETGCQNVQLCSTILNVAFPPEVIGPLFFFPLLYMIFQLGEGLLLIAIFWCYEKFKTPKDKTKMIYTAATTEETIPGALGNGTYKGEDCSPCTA
As to the kind of experiment: Uptake study on NTCP-HEK293 cells. The data set is classed as cell-based. The note with it: for Normalized Jmax: Jmax of compound normalized against Jmax of taurocholate; for Kt: Michaelis-Menten constant of uptake, 5 min, 0-200 μM in HBSS; for NTCP substrate (in words): uptake in presence versus absence of sodium.

Data set [3] has as its target T1, human NTCP. As to the kind of experiment: Inhibition of taurocholate uptake into NTCP-HEK293 cells. The data set is classed as cell-based. The note with it: for Inhibition of NTCP taurocholate uptake (in words): NTCP-HEK293 cells, 0-200 μM.
Data set [4] addresses T1, human NTCP. The note with it: ref Dong et al., 2013, cited from earlier work.
The target of data set [5] is T1, human NTCP. As to the kind of experiment: Inhibition of irbesartan or losartan uptake by taurocholate in NTCP-HEK293 cells. The data set is classed as cell-based. Conditions: substrates irbesartan or losartan.

“Also recorded” adds a separate entry of the source. Like-named read-outs stand apart in the source and are kept apart here.

Take `C[C@H](CCC(=O)O)[C@H]1CC[C@H]2[C@@H]3[C@H](O)C[C@@H]4C[C@H](O)CC[C@]4(C)[C@H]3C[C@H](O)[C@]12C` [CA, cholate]: in data set [1], the “Pp (passive permeability)” value turned out to be 4.56 ± 0.06 cm/s ×10^6. The “Normalized Jmax” value in data set [2] turned out to be 0.523 ± 0.081. For the same molecule, in data set [2] (NTCP-HEK293 cells), the Kt is 54.9 µM and the “NTCP substrate (in words)” value is “substrates”.
For the molecule `C[C@H](CCC(=O)O)[C@H]1CC[C@H]2[C@@H]3[C@H](O)C[C@@H]4C[C@H](O)CC[C@]4(C)[C@H]3CC[C@]12C` [CDCA, chenodeoxycholate], in data set [1], the “Pp (passive permeability)” value was 27.6 ± 1.5 cm/s ×10^6. The “NTCP substrate (in words)” value in data set [2] (NTCP-HEK293 cells) is recorded as “indistinguishable uptake in the presence or absence of sodium; also recorded: no NTCP uptake”.
Take `C[C@H](CCC(=O)N[C@@H](CCC(=O)OCc1ccccc1)C(=O)O)[C@H]1CC[C@H]2[C@@H]3[C@H](O)C[C@@H]4C[C@H](O)CC[C@]4(C)[C@H]3CC[C@]12C` [CDCA-L-Glu-γ-Benzyl Ester]: the “Pp (passive permeability)” value in data set [1] came out at 7.70 ± 0.23 cm/s ×10^6. Further, the “Normalized Jmax” value in data set [2] is listed as 0.233 ± 0.036. The Kt in data set [2] (NTCP-HEK293 cells) was determined as 11.7 ± 4.3 µM.
For the molecule `CC(C)[C@H](NC(=O)CC[C@@H](C)[C@H]1CC[C@H]2[C@@H]3[C@H](O)C[C@@H]4C[C@H](O)CC[C@]4(C)[C@H]3CC[C@]12C)C(=O)O` [CDCA-L-Val-OH], in data set [1], the “Pp (passive permeability)” value is reported as 1.47 ± 0.09 cm/s ×10^6. Also, the “Normalized Jmax” value in data set [2] came to 0.330 ± 0.031. For the same molecule, the Kt in data set [2] (NTCP-HEK293 cells) was 9.62 ± 1.47 µM.
Regarding `C[C@H](CCC(=O)O)[C@H]1CC[C@H]2[C@@H]3C(=O)C[C@@H]4CC(=O)CC[C@]4(C)[C@H]3CC(=O)[C@]12C` [DHCA, dehydrocholate], the “Inhibition of NTCP taurocholate uptake (in words)” value in data set [3] is recorded as “not an inhibitor of NTCP”.
For `O=C1[C@H](CC[C@H](O)c2ccc(F)cc2)[C@@H](c2ccc(O)cc2)N1c1ccc(F)cc1` [Ezetimibe], in data set [4], the “Previously identified as NTCP inhibitor (in words)” value was “previously identified as NTCP inhibitors”. Besides, the “NTCP substrate (in words)” value in data set [2] (NTCP-HEK293 cells) is recorded as “not to be NTCP substrates”.
`CC(C)OC(=O)C(C)(C)Oc1ccc(C(=O)c2ccc(Cl)cc2)cc1` [Fenofibrate]: the “Previously identified as NTCP inhibitor (in words)” value in data set [4] is reported as “previously observed them to be inhibitors”. Besides, the “NTCP substrate (in words)” value in data set [2] (NTCP-HEK293 cells) is “not to be NTCP substrates”.
With `C[C@H](CCC(=O)NCC(=O)O)[C@H]1CC[C@H]2[C@@H]3[C@H](O)C[C@@H]4C[C@H](O)CC[C@]4(C)[C@H]3C[C@H](O)[C@]12C` [GCA, glycocholate], the “Normalized Jmax” value in data set [2] was found to be 0.508 ± 0.041. Further, the Kt in data set [2] (NTCP-HEK293 cells) is 15.8 ± 2.7 µM.
For the molecule `C[C@H](CCC(=O)NCC(=O)O)[C@H]1CC[C@H]2[C@@H]3[C@H](O)C[C@@H]4C[C@H](O)CC[C@]4(C)[C@H]3CC[C@]12C` [GCDCA, glycochenodeoxycholate], the “Pp (passive permeability)” value in data set [1] stood at 2.17 ± 0.32 cm/s ×10^6. Further, in data set [2], the “Normalized Jmax” value was found to be 0.726 ± 0.091. In data set [2] (NTCP-HEK293 cells), the Kt is 10.9 ± 1.8 µM.
For orientation: Ki means the equilibrium dissociation constant of an inhibitor or competing ligand from its target. `C[C@H](CCC(=O)NCC(=O)O)[C@H]1CC[C@H]2[C@@H]3CC[C@@H]4C[C@H](O)CC[C@]4(C)[C@H]3CC[C@]12C` [GLCA, glycolithocholate]: the “Pp (passive permeability)” value in data set [1] was determined as 6.67 ± 0.95 cm/s ×10^6. Besides, the figures for the Ki in data set [3] and in data set [3] (listed as Lithocholate Glycine) were roughly 5 µM and 7.29 µM, respectively. Moreover, the “Normalized Jmax” value in data set [2] is 0.384 ± 0.070. In data set [2] (NTCP-HEK293 cells), this molecule gave a Kt of 4.87 ± 3.49 µM.
For the molecule `C[C@H](CCC(=O)NCC(=O)O)[C@H]1CC[C@H]2[C@@H]3[C@@H](O)C[C@@H]4C[C@H](O)CC[C@]4(C)[C@H]3CC[C@]12C` [GUDCA, glycoursodeoxycholate], in data set [3], the affinity corresponds to a Ki of 15 µM and the “Inhibition of NTCP taurocholate uptake (in words)” value is “reduced by GUDCA in a concentration-dependent manner”. In data set [2], the “Normalized Jmax” value worked out at 0.460 ± 0.143.
`CCCCC1=NC2(CCCC2)C(=O)N1Cc1ccc(-c2ccccc2-c2nnn[nH]2)cc1` [Irbesartan]: in data set [4], the “Previously identified as NTCP inhibitor (in words)” value is reported as “previously identified as NTCP inhibitors”. In addition, in data set [1], the “Pp (passive permeability)” value amounted to 6.27 ± 0.14 cm/s ×10^6. The “Normalized Jmax” value in data set [2] is given as 0.172 ± 0.022. Besides, in data set [2] (NTCP-HEK293 cells), the Kt amounted to 32.7 ± 5.9 µM and the “NTCP substrate (in words)” value is listed as “substrates of human NTCP”. Also, the Jmax in data set [2] (maximal flux, NTCP-HEK293 cells) came to 0.430 ± 0.026 pmol/sec/cm^2. Moreover, the “Jmax relative to taurocholate Jmax” value in data set [2] (versus taurocholate Jmax) was “about 20%”.
Consider `C[C@H](CCC(=O)O)[C@H]1CC[C@H]2[C@@H]3CC[C@@H]4C[C@H](O)CC[C@]4(C)[C@H]3CC[C@]12C` [LCA, lithocholate], for which the “Pp (passive permeability)” value in data set [1] was 33.9 ± 3.3 cm/s ×10^6. For the same molecule, the “NTCP substrate (in words)” value in data set [2] (NTCP-HEK293 cells) was “indistinguishable uptake in the presence or absence of sodium; also recorded: not an apparent substrate”.
On to `CCCCc1nc(Cl)c(CO)n1Cc1ccc(-c2ccccc2-c2nn[nH]n2)cc1` [Losartan], for which, in data set [1], the “Pp (passive permeability)” value amounted to 1.48 ± 0.12 cm/s ×10^6.
On the same count and under the same terms, as for `CC(C)c1nc(N(C)S(C)(=O)=O)nc(-c2ccc(F)cc2)c1/C=C/[C@@H](O)C[C@@H](O)CC(=O)O` [Rosuvastatin], the figure is 0.330 ± 0.006 cm/s ×10^6.
For `C[C@H](CCC(=O)NCCS(=O)(=O)O)[C@H]1CC[C@H]2[C@@H]3[C@H](O)C[C@@H]4C[C@H](O)CC[C@]4(C)[C@H]3C[C@H](O)[C@]12C` [TCA, taurocholate], the “Kt (NTCP taurocholate Michaelis-Menten constant)” value in data set [4] (used in Equation 1) is reported as 22.7(+3.4) μM. For the same molecule, the “Inhibition of irbesartan and losartan uptake (in words)” value in data set [5] was “inhibited irbesartan and losartan uptake in a concentration dependent fashion”. Besides, the “Normalized Jmax” value in data set [2] is listed as 0.708 ± 0.057. Further, in data set [2] (NTCP-HEK293 cells), the Kt came to 19.8 ± 2.5 µM.
With `C[C@H](CCC(=O)NCCS(=O)(=O)O)[C@H]1CC[C@H]2[C@@H]3[C@H](O)C[C@@H]4C[C@H](O)CC[C@]4(C)[C@H]3CC[C@]12C` [TCDCA, taurochenodeoxycholate], the “Pp (passive permeability)” value in data set [1] came out at 4.35 ± 0.70 cm/s ×10^6. For the same molecule, the “Normalized Jmax” value in data set [2] worked out at 0.621 ± 0.058. This molecule displayed a Kt in data set [2] (NTCP-HEK293 cells) of 8.12 ± 1.20 µM.
Taken in the same sequence, the figures for `C[C@H](CCC(=O)NCCS(=O)(=O)O)[C@H]1CC[C@H]2[C@@H]3CC[C@@H]4C[C@H](O)CC[C@]4(C)[C@H]3CC[C@]12C` [TLCA, taurolithocholate] were 3.37 ± 0.63 cm/s ×10^6, 0.495 ± 0.053 and 6.50 ± 1.87 µM.
Take `C[C@H](CCC(=O)NCCS(=O)(=O)O)[C@H]1CC[C@H]2[C@@H]3[C@@H](O)C[C@@H]4C[C@H](O)CC[C@]4(C)[C@H]3CC[C@]12C` [TUDCA, tauroursodeoxycholate]: the “Normalized Jmax” value in data set [2] turned out to be 0.409 ± 0.038. This molecule also returned a Kt in data set [2] (NTCP-HEK293 cells) of 9.53 µM.
With `C[C@H](CCC(=O)O)[C@H]1CC[C@H]2[C@@H]3[C@@H](O)C[C@@H]4C[C@H](O)CC[C@]4(C)[C@H]3CC[C@]12C` [UDCA, ursodeoxycholate], in data set [1], the “Pp (passive permeability)” value was 26.3 ± 1.1 cm/s ×10^6. Besides, the “Normalized Jmax” value in data set [2] is given as 0.0511 ± 0.0093. In data set [2] (NTCP-HEK293 cells), the Kt is 1.55 µM and the “NTCP substrate (in words)” value is “substrates”. In addition, in data set [2] (versus taurocholate), the “Normalized Jmax, fold lower than that for taurocholate” value was 14 fold.

These data come from PMC4430447 (International journal of pharmaceutics, 2014).
